Experimental data reported in patent EP4803511A1, “SMALL MOLECULE COMPOUND HAVING SULFONIC ACID OR SULFINIC ACID LACTONE STRUCTURE, COMPOSITION AND USE THEREOF” (Hangzhou Phecdamed Co., Ltd., priority 2023, dated 2025).

Experiment: Kinetic solubility in aqueous buffer
Assay type: physicochemical
Settings: 2 hrs at 25 °C
Protocol: Experimental Methods: 30 µL of the 10 mM DMSO stock solution of the compound to be test was placed in a solubility sample plate (duplicate), 970 µL of aqueous buffer solution was added to the plate, and the plate was sealed with a sealing membrane and shaken at 1100 rpm for 2 hrs at 25 °C. The sample in the solubility plate was transferred to a filter plate, and filtered to obtain a filtrate. 10 µL of the filtrate was transferred into 980 µL of methanol along with 10 µL of DMSO, and then the solution was diluted 10-fold with methanol:water (1:1), and the resulting sample was analyzed by LC-MS/MS to obtain Area (filtered). Separately, 10 mM of the DMSO stock solution of the compound to be test was diluted to 300 µM with DMSO. 10 µL of this 300 µM DMSO solution and 10 µL of aqueous buffer solution were added into 980 µL of methanol, and then diluted 10-fold with methanol:water (1:1), and the resulting sample was analyzed by LC-MS/MS to obtain Area (std). The kinetic solubility was calculated according to the following formula: Solubility(μM) = (Areafiltered × DFfiltered)/(Areastd × DFstd) × [std] × DFstd [formula] wherein DF is the dilution factor.

SMILES: O=S1(=O)Oc2cc(O)ccc2-c2ccc(O)cc21 [Compound I-8]
- solubility kinetic at 2 h: > 300 µM
